Laboratory results taken from article PMC12596731, “Cys–Lys stapling for unprotected peptides via tunable linkers” (National Science Review, 2025).

How the values were obtained:
[1] = Circular dichroism measurement of α-helicity; assay type: physicochemical; conditions: 40% TFE/H2O, 0.05 mM peptide, room temperature, path length 1 mm, 180-260 nm, average of at least 3 values
Experimental: VIII. Circular Dichroism Measurements.[22]
General Procedure for the measurement of CD spectra were mensurated at a wavelength ranging from 180 to 260 nm, with a path length of 1mm and a scanning speed of 200 nm/min at room temperature on the J-1500 (Jasco, Japan) spectropolarimeter. The lyophilized solid linear and staple peptides were dissolved in deionized water (bubbled with nitrogen for 30 minutes) to afford a 1 mM solution. The 1 mM stock solution was diluted with six different solvent systems (H2O, 5%, 10%, 20%, 30%, 40% TFE/H2O) to afford 0.05 mM solutions. The data described is the average of at least 3 values. The mean peptide ellipticity [θ] was calculated using equation (1) and plotted against […]
θ: ellipticity [mdeg], C: peptide molar concentration [M], Np: number of peptide units, l: cell path length [cm].[6]
Figure S20: The CD spectroscopy of 5y was measured in six different solvent systems Through the above data, we obviously saw that the stapled peptide 5y had the best helicity (34.7%) in 40% solution of TFE/H2O, and then we conducted CD test on the active peptide QN-16 before and after stapling.

[2] = system: human bladder cancer cells; assay type: cell-based; conditions: 48 h
Experimental: XI. Biological Experiments
Cell Counting Kit (CCK-8) was used to evaluate the proliferation inhibition activity of the compounds, and the half inhibitory concentration IC50 value was determined by single-concentration primary screening and multi-concentration.
Fetal Bovine Serum (FBS) 04-001-1acs, Biological industries; PBS phosphate buffer (PB180327), penicillin-streptomycin sulfate double resistant mixture (100× ) […]
Leibovitz's L-15 medium (PM151010), Wuhan Punosai Life Technology Co., LTD.
CCK-8 Kit, Biosharp life sciences; Trypsin-edta Digestive Solution (05200-056), GIBCO; Cellular DMSO (D2650 -100ML), SIGMA; 96-well cell culture plate, Corning Life Sciences (Wujiang) Co., LTD. 25, 75cm2 cell culture bottle, Corning Life Sciences (Wujiang) Co., LTD. Blood cell counting plate, Shanghai Qiujing Biochemical Reagent Instrument Co., LTD. Cisplatin (D8810), Solarbio life sciences;
Instruments and equipment
Super clean workbench (sw-cj-2fd), Sujing Aetna; Microscope (nib -100), Ningbo Yongxin Optical Co., Ltd; Carbon dioxide cell incubator (MCO -18AC), Phcbi; Electric constant temperature water bath pot (HWS -24), Shanghai Yiheng Technology Co., Ltd; Multifunctional microplate reader (Multiskan MK3), Thermo; One ten-thousandth balance (MS105DU), METTLER; Centrifuge (TD4N), ChangshaYingtai Instrument Co., Ltd; Mixer (SCI-VS), Selo Czech Republic, USA.
The samples were dissolved in the cell -grade DMSO after accurately weighing to generate the 10 mM drug solution. The drug solution was further diluted to tenfold detection concentration by cell culture medium.
Standard Operation Procedure
Detection principle of cytotoxicity (CCK -8 method):
The detection principle is that the CCK-8 reagent contains WST-8, which is reduced S52 to a highly water-soluble yellow methyl product (formazan) by dehydrogenase in the cell mitochondria under the action of electron carrier 1-methoxy-5-methylphenazine dimethyl sulfate (1-methoxy PMS). The number of the nail products produced is directly proportional to the number of living cells.
(1) Inoculate cells: The cells were prepared into single cell suspension with the culture medium containing 10% fetal bovine serum, and the 96 well plates were inoculated with 90 uL cell culture medium (Adherent cell viewed 5×10^4/mL and Suspension cell viewed 9×10^4/mL) per well, then cultured at 5% CO2 and 37 ℃ for 24 hours.
(2) Add the sample solution to be tested: Add 10 µL sample solution to each well. One concentration was set for each sample during preliminary screening and three multiple holes were set for each concentration. Eight concentration gradients were set for each sample for IC50 determination and three multiple holes were set for each concentration.
The 96 well plates were cultured at 5% CO2 and 37 ℃ for 48 hours. The experiment was divided into a blank group, control group and drug group.
(3) Color development: The old culture medium and drug solution of adherent cells were sucked out, then 100 µL of CCK-8 solution (diluted ten times with the basic medium) was added and the suspension cells were directly added 10 µL of CCK-8 stock solution. Culture at 37 ℃ with 5% CO2 for 1-4 h (dark operation, real-time observation).
(4) Result detection: The absorbance was measured at 450 nm with an enzyme labeling instrument and the original data and results were recorded.
(5) The toxicity is expressed by cell inhibition, and the calculation formula is as follows:
Cell inhibition (%) = (ODControl-ODDrug) / (ODControl-ODBlank)×100%. The IC50 was calculated by the software graphpad prism 8 (version 8.0.2, from GraphPad SoftwareInc)，and the experimental results are expressed in ± SD.
6) Positive control: Cisplatin.

[3] = Serum stability study in Foetal Bovine Serum; conditions: 300 µL of 1 mg/mL peptide in deionized water + 300 µL Foetal Bovine Serum, 37 °C, CH3CN precipitation, RP-HPLC peak area of intact peptide
Experimental: The peptide of interest (300 µ L of 1 mg/mL stock solution in deionized water) was added to 300 µ L of
Foetal Bovine Serum and incubated at 37° C in an incubator. At each time point, an aliquot of 50 µ L was
drawn and an equal volume of ice-chilled CH3CN was added to the aliquot to precipitate serum proteins.
The cloudy mixture was centrifuged at 12,000 rpm for 10 min and then supernatant was removed. The
level of degradation was determined by the integration of the area under the RP-HPLC peak
corresponding to the intact peptide.
Before testing the serum stability, the standard curve (the relationship between concentration and peak
area) was established by RP-HPLC for CP-9 and TR-12 and QN-16 and 5h and 5o and 5w.
shift their retention times later.

[4] = system: chymotrypsin; assay: Proteolysis assay with chymotrypsin; assay type: in vitro ADME; conditions: chymotrypsin solution, 500 µL of 500 µM peptide in phosphate buffer pH 7.4 + 10 µL chymotrypsin 100 µg/mL, 37 °C, HPLC integration relative to starting peptide, read-out: peptide degraded under chymotrypsin for 1.5 h
Experimental: IX. Proteolysis assays.
500 µL of peptide TR-12 (500 µM, 2 µL DMSO was added to help solubilization) in phosphate buffer (pH 7.4) was mixed and incubated with 10 µL of the protease solution (Chymotrypsin – 100 µg/mL) at 37 ℃. At 0, 10, 20 , 40, 60, 90 minutes, aliquots of 50 µL were quenched with 50 µL of 1% TFA solution in MeCN respectively and subjected to HPLC analysis. Peptide concentrations at different time points were quantified by integration of the HPLC trace relative to the starting […]
500 µL of peptide 5o (500 µM, 2 µL DMSO was added to help solubilization) in phosphate buffer (pH 7.4) was mixed and incubated with
Table S2. Proteolytic assays of peptide TR-12 and 5o with chymotrypsin.
Time/Peak area 0 min 10 min 20 min 40 min 60 min 90 min

| Molecule | Helicity (α-helicity by CD) [1] | IC50 [2] | time for complete degradation in bovine serum [3] | metabolised at 1.5 h, 490 µM [4] |
| --- | --- | --- | --- | --- |
| Ac-QSQQTFCNLWRLLKQN-NH2 (also: sidechain bridge or staple (positions not given here)) [Peptide 5y, QN-16 stapled with reagent 3m] | 34.7% |  |  |  |
| Ac-QSQQTFCNLWRLLKQN-NH2 (also: sidechain bridge or staple (positions not given here)) [Peptide 5v, QN-16 stapled with reagent 3d] | 60.8% |  |  |  |
| CC(=O)N[C@H](C(=O)N[C@@H](CO)C(=O)N[C@@H](Cc1ccccc1)C(=O)N[C@H]1CCCCNC(=O)CCC/C(=C\Cl)SSC[C@@H](C(=O)N[C@@H](CC(C)C)C(=O)N[C@@H](CC(C)C)C(=O)N[C@@H](CO)C(=O)N[C@@H](CCCNC(=N)N)C(N)=O)NC(=O)[C@H](Cc2c[nH]c3ccccc23)NC(=O)[C@H](Cc2ccc(O)cc2)NC(=O)[C@H](CCC(N)=O)NC1=O)[C@@H](C)O [Peptide 5l] | 81.4% | 14.7 µM |  |  |
| Ac-CPIMEDRKP-NH2 [CP-9] |  |  | ≤ 5 h |  |
| CC(=O)N[C@H](C(=O)N[C@@H](CO)C(=O)N[C@@H](Cc1ccccc1)C(=O)N[C@@H](CCCCN)C(=O)N[C@@H](CCC(N)=O)C(=O)N[C@@H](Cc1ccc(O)cc1)C(=O)N[C@@H](Cc1c[nH]c2ccccc12)C(=O)N[C@@H](CS)C(=O)N[C@@H](CC(C)C)C(=O)N[C@@H](CC(C)C)C(=O)N[C@@H](CO)C(=O)N[C@@H](CCCNC(=N)N)C(N)=O)[C@@H](C)O [TR-12] | 44.7% | 16.2 µM | ≤ 2 h | 90% |
| Ac-QSQQTFCNLWRLLKQN-NH2 [QN-16] | 30.3% |  |  |  |
| CC(=O)N[C@H](C(=O)N[C@@H](CO)C(=O)N[C@@H](Cc1ccccc1)C(=O)N[C@H]1CCCCNC(=O)CCCC/C(=C\Cl)SSC[C@@H](C(=O)N[C@@H](CC(C)C)C(=O)N[C@@H](CC(C)C)C(=O)N[C@@H](CO)C(=O)N[C@@H](CCCNC(=N)N)C(N)=O)NC(=O)[C@H](Cc2c[nH]c3ccccc23)NC(=O)[C@H](Cc2ccc(O)cc2)NC(=O)[C@H](CCC(N)=O)NC1=O)[C@@H](C)O [Peptide 5o] |  | 8.55 µM |  | 43% |
